{"source": "the supplement of paper PMC4862054", "details_in_all_cases": "incubation time: 72 h", "key": {"[1]": {"test_system": "BT-474", "test": "drug sensitivity score (DSS), CellTiter-Blue viability (DSS (AUC-based score)); higher = stronger viability inhibition; extreme values may be limits of the assay", "description": "(§1)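 DSRT with the CellTiter-Blue (resazurin reduction) viability readout, fluorescence 560/590 nm, 72 h incubation. Plates were normalised to DMSO and benzethonium chloride controls. DSS is computed from the area under the fitted dose-response curve (5 or 9 concentrations).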"}, "[2]": {"test_system": "BT-549", "test": "drug sensitivity score (DSS), CellTiter-Blue viability (DSS (AUC-based score)); higher = stronger viability inhibition; extreme values may be limits of the assay", "description": "as §1"}, "[3]": {"test_system": "CAL-51", "test": "drug sensitivity score (DSS), CellTiter-Blue viability (DSS (AUC-based score)); higher = stronger viability inhibition; extreme values may be limits of the assay", "description": "as §1"}, "[4]": {"test_system": "HCC1143", "test": "drug sensitivity score (DSS), CellTiter-Blue viability (DSS (AUC-based score)); higher = stronger viability inhibition; extreme values may be limits of the assay", "description": "as §1"}, "[5]": {"test_system": "HCC1937", "test": "drug sensitivity score (DSS), CellTiter-Blue viability (DSS (AUC-based score)); higher = stronger viability inhibition; extreme values may be limits of the assay", "description": "as §1"}, "[6]": {"test_system": "MDA-MB-231", "test": "drug sensitivity score (DSS), CellTiter-Blue viability (DSS (AUC-based score)); higher = stronger viability inhibition; extreme values may be limits of the assay", "description": "as §1"}, "[7]": {"test_system": "MDA-MB-436", "test": "drug sensitivity score (DSS), CellTiter-Blue viability (DSS (AUC-based score)); higher = stronger viability inhibition; extreme values may be limits of the assay", "description": "as §1"}, "[8]": {"test_system": "BT-474", "test": "drug sensitivity score (DSS), CellTox Green (DSS (AUC-based score)); higher = stronger drug effect (viability inhibition or cytotoxicity); extreme values may be limits of the assay", "summary_of_the_method": "(§2)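 A drug sensitivity score was derived from the area under each fitted dose-response curve. Breast cancer cells (20 µl suspension) were seeded onto compound in 384-well plates, using 5 concentrations 10-fold apart over a compound-specific 10,000-fold range, and incubated 72 h. Readouts were CellTox Green fluorescence and then CellTiter-Glo luminescence, with every plate normalised to 0.1 % DMSO and a positive kill control.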"}, "[9]": {"test_system": "BT-549", "test": "drug sensitivity score (DSS), CellTox Green (DSS (AUC-based score)); higher = stronger drug effect (viability inhibition or cytotoxicity); extreme values may be limits of the assay", "summary_of_the_method": "as §2"}, "[10]": {"test_system": "CAL-120", "test": "drug sensitivity score (DSS), CellTox Green (DSS (AUC-based score)); higher = stronger drug effect (viability inhibition or cytotoxicity); extreme values may be limits of the assay", "summary_of_the_method": "as §2"}, "[11]": {"test_system": "CAL-148", "test": "drug sensitivity score (DSS), CellTox Green (DSS (AUC-based score)); higher = stronger drug effect (viability inhibition or cytotoxicity); extreme values may be limits of the assay", "summary_of_the_method": "as §2"}, "[12]": {"test_system": "CAL-51", "test": "drug sensitivity score (DSS), CellTox Green (DSS (AUC-based score)); higher = stronger drug effect (viability inhibition or cytotoxicity); extreme values may be limits of the assay", "summary_of_the_method": "as §2"}, "[13]": {"test_system": "CAL-85-1", "test": "drug sensitivity score (DSS), CellTox Green (DSS (AUC-based score)); higher = stronger drug effect (viability inhibition or cytotoxicity); extreme values may be limits of the assay", "summary_of_the_method": "as §2"}, "[14]": {"test_system": "DU-4475", "test": "drug sensitivity score (DSS), CellTox Green (DSS (AUC-based score)); higher = stronger drug effect (viability inhibition or cytotoxicity); extreme values may be limits of the assay", "summary_of_the_method": "as §2"}, "[15]": {"test_system": "HCC1143", "test": "drug sensitivity score (DSS), CellTox Green (DSS (AUC-based score)); higher = stronger drug effect (viability inhibition or cytotoxicity); extreme values may be limits of the assay", "summary_of_the_method": "as §2"}, "[16]": {"test_system": "HCC1599", "test": "drug sensitivity score (DSS), CellTox Green (DSS (AUC-based score)); higher = stronger drug effect (viability inhibition or cytotoxicity); extreme values may be limits of the assay", "summary_of_the_method": "as §2"}, "[17]": {"test_system": "HCC1937", "test": "drug sensitivity score (DSS), CellTox Green (DSS (AUC-based score)); higher = stronger drug effect (viability inhibition or cytotoxicity); extreme values may be limits of the assay", "summary_of_the_method": "as §2"}, "[18]": {"test_system": "HDQ-P1", "test": "drug sensitivity score (DSS), CellTox Green (DSS (AUC-based score)); higher = stronger drug effect (viability inhibition or cytotoxicity); extreme values may be limits of the assay", "summary_of_the_method": "as §2"}, "[19]": {"test_system": "Hs578T", "test": "drug sensitivity score (DSS), CellTox Green (DSS (AUC-based score)); higher = stronger drug effect (viability inhibition or cytotoxicity); extreme values may be limits of the assay", "summary_of_the_method": "as §2"}, "[20]": {"test_system": "MCF-10A", "test": "drug sensitivity score (DSS), CellTox Green (DSS (AUC-based score)); higher = stronger drug effect (viability inhibition or cytotoxicity); extreme values may be limits of the assay", "summary_of_the_method": "as §2"}, "[21]": {"test_system": "MDA-MB-231", "test": "drug sensitivity score (DSS), CellTox Green (DSS (AUC-based score)); higher = stronger drug effect (viability inhibition or cytotoxicity); extreme values may be limits of the assay", "summary_of_the_method": "as §2"}, "[22]": {"test_system": "MDA-MB-436", "test": "drug sensitivity score (DSS), CellTox Green (DSS (AUC-based score)); higher = stronger drug effect (viability inhibition or cytotoxicity); extreme values may be limits of the assay", "summary_of_the_method": "as §2"}, "[23]": {"test_system": "MDA-MB-453", "test": "drug sensitivity score (DSS), CellTox Green (DSS (AUC-based score)); higher = stronger drug effect (viability inhibition or cytotoxicity); extreme values may be limits of the assay", "summary_of_the_method": "as §2"}, "[24]": {"test_system": "MDA-MB-468", "test": "drug sensitivity score (DSS), CellTox Green (DSS (AUC-based score)); higher = stronger drug effect (viability inhibition or cytotoxicity); extreme values may be limits of the assay", "summary_of_the_method": "as §2"}, "[25]": {"test_system": "MFM-223", "test": "drug sensitivity score (DSS), CellTox Green (DSS (AUC-based score)); higher = stronger drug effect (viability inhibition or cytotoxicity); extreme values may be limits of the assay", "summary_of_the_method": "as §2"}}}
{"smiles": "CCOc1cc2ncc(C#N)c(Nc3ccc(OCc4ccccn4)c(Cl)c3)c2cc1NC(=O)/C=C/CN(C)C", "note": "[Neratinib]", "values": [{"measurement": "drug sensitivity score", "setting": "[1]", "value": 0}, {"measurement": "drug sensitivity score", "setting": "[2]", "value": 0}, {"measurement": "drug sensitivity score", "setting": "[3]", "value": 0}, {"measurement": "drug sensitivity score", "setting": "[4]", "value": 0}, {"measurement": "drug sensitivity score", "setting": "[5]", "value": 0}, {"measurement": "drug sensitivity score", "setting": "[6]", "value": 0}, {"measurement": "drug sensitivity score", "setting": "[7]", "value": 0}, {"measurement": "drug sensitivity score", "setting": "[8]", "value": 4.09}, {"measurement": "drug sensitivity score", "setting": "[9]", "value": 0}, {"measurement": "drug sensitivity score", "setting": "[10]", "value": 0}, {"measurement": "drug sensitivity score", "setting": "[11]", "value": 0.237}, {"measurement": "drug sensitivity score", "setting": "[12]", "value": 0}, {"measurement": "drug sensitivity score", "setting": "[13]", "value": 3.47}, {"measurement": "drug sensitivity score", "setting": "[14]", "value": 0}, {"measurement": "drug sensitivity score", "setting": "[15]", "value": 0}, {"measurement": "drug sensitivity score", "setting": "[16]", "value": 0}, {"measurement": "drug sensitivity score", "setting": "[17]", "value": 0}, {"measurement": "drug sensitivity score", "setting": "[18]", "value": 0}, {"measurement": "drug sensitivity score", "setting": "[19]", "value": 0}, {"measurement": "drug sensitivity score", "setting": "[20]", "value": 0}, {"measurement": "drug sensitivity score", "setting": "[21]", "value": 4.21}, {"measurement": "drug sensitivity score", "setting": "[22]", "value": 0}, {"measurement": "drug sensitivity score", "setting": "[23]", "value": 0}, {"measurement": "drug sensitivity score", "setting": "[24]", "value": 9.51}, {"measurement": "drug sensitivity score", "setting": "[25]", "value": 0}]}
{"smiles": "C[C@@H]1C=C2C(=O)O[C@@H]3CC[C@H](C1)[C@]23O", "note": "[Galiellalactone]", "values": [{"measurement": "drug sensitivity score", "setting": "[1]", "value": 2.65}, {"measurement": "drug sensitivity score", "setting": "[2]", "value": 10.4}, {"measurement": "drug sensitivity score", "setting": "[3]", "value": 0.94}, {"measurement": "drug sensitivity score", "setting": "[4]", "value": 0}, {"measurement": "drug sensitivity score", "setting": "[5]", "value": 5.76}, {"measurement": "drug sensitivity score", "setting": "[6]", "value": 9.39}, {"measurement": "drug sensitivity score", "setting": "[7]", "value": 6.26}, {"measurement": "drug sensitivity score", "setting": "[8]", "value": 0}, {"measurement": "drug sensitivity score", "setting": "[9]", "value": 0}, {"measurement": "drug sensitivity score", "setting": "[10]", "value": 0}, {"measurement": "drug sensitivity score", "setting": "[11]", "value": 0}, {"measurement": "drug sensitivity score", "setting": "[12]", "value": 0}, {"measurement": "drug sensitivity score", "setting": "[13]", "value": 1.02}, {"measurement": "drug sensitivity score", "setting": "[14]", "value": 0}, {"measurement": "drug sensitivity score", "setting": "[15]", "value": 0}, {"measurement": "drug sensitivity score", "setting": "[16]", "value": 0}, {"measurement": "drug sensitivity score", "setting": "[17]", "value": 0}, {"measurement": "drug sensitivity score", "setting": "[18]", "value": 0}, {"measurement": "drug sensitivity score", "setting": "[19]", "value": 0}, {"measurement": "drug sensitivity score", "setting": "[20]", "value": 0}, {"measurement": "drug sensitivity score", "setting": "[21]", "value": 0}, {"measurement": "drug sensitivity score", "setting": "[22]", "value": 0}, {"measurement": "drug sensitivity score", "setting": "[23]", "value": 0}, {"measurement": "drug sensitivity score", "setting": "[24]", "value": 0}, {"measurement": "drug sensitivity score", "setting": "[25]", "value": 0}]}
{"smiles": "COc1ccc(C2=N[C@@H](c3ccc(Cl)cc3)[C@@H](c3ccc(Cl)cc3)N2C(=O)N2CCNC(=O)C2)c(OC(C)C)c1", "note": "[Nutlin-3]", "values": [{"measurement": "drug sensitivity score", "setting": "[1]", "value": 0}, {"measurement": "drug sensitivity score", "setting": "[2]", "value": 0}, {"measurement": "drug sensitivity score", "setting": "[3]", "value": 2.91}, {"measurement": "drug sensitivity score", "setting": "[4]", "value": 0}, {"measurement": "drug sensitivity score", "setting": "[5]", "value": 0}, {"measurement": "drug sensitivity score", "setting": "[6]", "value": 0}, {"measurement": "drug sensitivity score", "setting": "[7]", "value": 0}, {"measurement": "drug sensitivity score", "setting": "[8]", "value": 0}, {"measurement": "drug sensitivity score", "setting": "[9]", "value": 0}, {"measurement": "drug sensitivity score", "setting": "[10]", "value": 0}, {"measurement": "drug sensitivity score", "setting": "[11]", "value": 1.15}, {"measurement": "drug sensitivity score", "setting": "[12]", "value": 13.1}, {"measurement": "drug sensitivity score", "setting": "[13]", "value": 0}, {"measurement": "drug sensitivity score", "setting": "[14]", "value": 0}, {"measurement": "drug sensitivity score", "setting": "[15]", "value": 0}, {"measurement": "drug sensitivity score", "setting": "[16]", "value": 0}, {"measurement": "drug sensitivity score", "setting": "[17]", "value": 2.28}, {"measurement": "drug sensitivity score", "setting": "[18]", "value": 0}, {"measurement": "drug sensitivity score", "setting": "[19]", "value": 0}, {"measurement": "drug sensitivity score", "setting": "[20]", "value": 0}, {"measurement": "drug sensitivity score", "setting": "[21]", "value": 0}, {"measurement": "drug sensitivity score", "setting": "[22]", "value": 0}, {"measurement": "drug sensitivity score", "setting": "[23]", "value": 0}, {"measurement": "drug sensitivity score", "setting": "[24]", "value": 0}, {"measurement": "drug sensitivity score", "setting": "[25]", "value": 0}]}
